In patent US10632119B2, “Fused bicyclic 2,4-diaminopyrimidine derivative as a dual ALK and FAK inhibitor” (priority 2012, dated 2020):
Values after ≈ are worked out from the molar mass of the structure shown. Where two headings read alike, the source gives them in different places.

How the values were obtained:
[1] = Protein binding, dog; format: in vitro ADME; conditions: dog (D)
[2] = Protein binding, human; format: in vitro ADME; conditions: human (H)
[3] = target: T1, FAK (Homo sapiens, UniProt Q05397); test: FAK cellular assay; format: cell-based
T1 sequence (Q05397 whole entry): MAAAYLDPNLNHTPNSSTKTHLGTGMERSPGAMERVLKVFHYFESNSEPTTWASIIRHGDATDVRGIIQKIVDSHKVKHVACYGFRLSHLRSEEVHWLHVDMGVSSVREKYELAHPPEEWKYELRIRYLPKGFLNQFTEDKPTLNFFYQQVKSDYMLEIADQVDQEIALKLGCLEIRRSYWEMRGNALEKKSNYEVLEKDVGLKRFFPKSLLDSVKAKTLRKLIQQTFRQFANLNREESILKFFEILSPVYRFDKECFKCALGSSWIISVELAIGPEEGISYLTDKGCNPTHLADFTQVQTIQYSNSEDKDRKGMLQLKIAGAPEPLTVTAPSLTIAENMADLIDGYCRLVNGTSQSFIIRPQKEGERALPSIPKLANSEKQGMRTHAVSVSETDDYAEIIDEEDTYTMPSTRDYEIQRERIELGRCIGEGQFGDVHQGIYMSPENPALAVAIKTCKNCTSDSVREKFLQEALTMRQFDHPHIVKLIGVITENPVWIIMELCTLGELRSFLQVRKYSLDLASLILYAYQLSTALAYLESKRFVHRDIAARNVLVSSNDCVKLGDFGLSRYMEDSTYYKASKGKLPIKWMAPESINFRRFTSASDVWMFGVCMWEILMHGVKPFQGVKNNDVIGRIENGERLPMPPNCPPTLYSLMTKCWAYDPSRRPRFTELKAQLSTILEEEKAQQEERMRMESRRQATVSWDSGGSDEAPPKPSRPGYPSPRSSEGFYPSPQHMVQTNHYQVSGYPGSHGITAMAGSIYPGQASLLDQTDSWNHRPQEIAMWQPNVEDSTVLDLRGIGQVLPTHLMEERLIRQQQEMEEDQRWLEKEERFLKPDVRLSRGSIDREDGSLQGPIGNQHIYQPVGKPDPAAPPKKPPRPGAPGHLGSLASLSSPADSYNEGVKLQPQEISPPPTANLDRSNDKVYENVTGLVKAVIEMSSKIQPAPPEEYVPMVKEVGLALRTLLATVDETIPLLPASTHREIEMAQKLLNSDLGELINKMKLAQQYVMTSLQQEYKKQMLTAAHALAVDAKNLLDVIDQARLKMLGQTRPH

[4] = target: Adrenergic α1D (H) (Homo sapiens, UniProt P25100); test: Receptor selectivity (Cerep); format: binding
Adrenergic α1D (H), sequence (P25100 whole entry): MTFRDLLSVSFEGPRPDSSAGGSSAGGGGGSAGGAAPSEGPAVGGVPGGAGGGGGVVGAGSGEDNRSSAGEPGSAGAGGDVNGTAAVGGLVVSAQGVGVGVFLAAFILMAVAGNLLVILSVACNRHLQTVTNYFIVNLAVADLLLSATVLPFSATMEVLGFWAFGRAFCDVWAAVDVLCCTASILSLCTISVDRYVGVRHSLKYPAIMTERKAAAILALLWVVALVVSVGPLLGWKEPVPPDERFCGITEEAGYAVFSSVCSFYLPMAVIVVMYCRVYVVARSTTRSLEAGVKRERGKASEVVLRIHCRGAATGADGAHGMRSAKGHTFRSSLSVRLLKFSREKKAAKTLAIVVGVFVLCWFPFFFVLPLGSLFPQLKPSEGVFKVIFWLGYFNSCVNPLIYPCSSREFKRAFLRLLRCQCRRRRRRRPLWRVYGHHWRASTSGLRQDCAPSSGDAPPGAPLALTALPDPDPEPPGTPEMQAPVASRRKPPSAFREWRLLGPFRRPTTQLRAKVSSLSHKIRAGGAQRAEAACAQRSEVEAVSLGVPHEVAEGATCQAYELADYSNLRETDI

[5] = target: T2, ALK (Homo sapiens, UniProt Q9UM73); test: ALK cellular assay; format: cell-based
Target sequence in this assay (Q9UM73 with tags, fused parts or gaps): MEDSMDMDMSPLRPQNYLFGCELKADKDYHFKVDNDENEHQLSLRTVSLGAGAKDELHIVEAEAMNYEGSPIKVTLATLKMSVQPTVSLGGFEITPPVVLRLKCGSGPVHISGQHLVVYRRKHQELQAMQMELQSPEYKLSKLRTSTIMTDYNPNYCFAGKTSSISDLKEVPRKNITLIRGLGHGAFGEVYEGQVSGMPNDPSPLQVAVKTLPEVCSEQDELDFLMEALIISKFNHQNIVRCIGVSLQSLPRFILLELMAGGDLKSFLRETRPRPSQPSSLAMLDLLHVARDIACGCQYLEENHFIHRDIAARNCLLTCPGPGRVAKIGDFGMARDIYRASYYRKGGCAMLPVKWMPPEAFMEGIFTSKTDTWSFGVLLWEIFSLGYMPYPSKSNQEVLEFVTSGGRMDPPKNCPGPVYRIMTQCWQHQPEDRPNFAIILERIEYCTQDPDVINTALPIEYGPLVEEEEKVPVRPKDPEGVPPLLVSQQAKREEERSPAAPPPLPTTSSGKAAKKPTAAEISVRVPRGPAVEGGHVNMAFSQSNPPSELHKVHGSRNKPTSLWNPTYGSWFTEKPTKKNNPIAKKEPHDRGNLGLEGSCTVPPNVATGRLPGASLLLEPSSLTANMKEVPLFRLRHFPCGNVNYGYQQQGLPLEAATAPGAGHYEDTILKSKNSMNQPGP

[6] = In vitro metabolic stability, rat; format: in vitro ADME; conditions: rat (R); read-out: In vitro metabolic stability t1/2
[7] = Equilibrium solubility; format: physicochemical; conditions: thermodynamic from solid
[8] = In vitro metabolic stability, mouse; format: in vitro ADME; conditions: mouse (M); read-out: In vitro metabolic stability t1/2
[9] = tested on: CYP3A4; test: CYP3A4 induction in vitro
[10] = Monkey bioavailability; conditions: in vivo, po
[11] = target: T1, FAK; test: FAK enzymatic assay; format: biochemical
[12] = Description: Five animals/sex were assigned to each dose group and were given daily oral doses of 0 (vehicle), 20, 40 or 80 mg/kg for up to 91 days. […] Three animals/sex/group were scheduled for termination at the end of the dosing period (Day 92) and two animals/sex/group were assigned to a 6-week non-dosing recovery phase and were terminated on Day 134.
Urine samples for urinalysis only were obtained by bladder puncture during necropsy. Urine samples for urinalysis and urine chemistry analysis were also obtained by drainage from special stainless-steel cage pans in Weeks −1, 1, 4, and 13, and from the remaining animals near the end of the recovery period.
Blood samples were collected for toxicokinetic analysis at various time points on Day 1 and during Weeks 4 and 13. […] At termination, a full necropsy was conducted on all animals, and tissues were collected, preserved, processed, and examined microscopically by a Veterinary Pathologist certified by the American College of Veterinary Pathologists.

[13] = remark: listed apart in the source
Description: The following parameters and end points were evaluated in this study: clinical signs (mortality/moribundity checks, cage side observations and food consumption, and postdose observations), body weights, veterinary physical examinations, lung evaluations, ophthalmology, electrocardiography, blood pressure and heart rate measurements, clinical pathology parameters (hematology, coagulation, clinical chemistry, urinalysis, urine chemistry, and troponin I analysis), toxicokinetic parameters, gross necropsy findings, organ weights, and histopathologic examinations.

[14] = target: CYP 2C19 (Homo sapiens, UniProt P33261); test: CYP inhibition; format: in vitro ADME
CYP 2C19, sequence (P33261 whole entry): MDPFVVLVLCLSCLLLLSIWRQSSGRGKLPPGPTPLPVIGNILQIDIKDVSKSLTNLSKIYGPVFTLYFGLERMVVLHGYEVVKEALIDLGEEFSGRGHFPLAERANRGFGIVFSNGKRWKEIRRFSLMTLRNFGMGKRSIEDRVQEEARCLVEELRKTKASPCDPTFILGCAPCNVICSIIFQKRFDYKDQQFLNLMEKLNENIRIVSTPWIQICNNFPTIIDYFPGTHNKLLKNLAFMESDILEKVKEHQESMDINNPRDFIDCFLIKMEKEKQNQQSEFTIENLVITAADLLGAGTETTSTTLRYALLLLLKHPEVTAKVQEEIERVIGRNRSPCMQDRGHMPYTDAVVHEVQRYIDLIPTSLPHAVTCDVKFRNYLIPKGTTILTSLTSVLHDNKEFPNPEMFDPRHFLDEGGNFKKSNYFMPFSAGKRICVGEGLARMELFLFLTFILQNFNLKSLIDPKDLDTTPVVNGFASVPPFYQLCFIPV

[15] = In vitro metabolic stability, dog; format: in vitro ADME; conditions: dog (D); read-out: In vitro metabolic stability t1/2
[16] = Caco-2 permeability; format: in vitro ADME; conditions: human
[17] = target: IR (Homo sapiens, UniProt P06213); test: biochemical
[18] = target: T2, ALK; test: ALK enzymatic assay; format: biochemical
[19] = In vitro metabolic stability, human; format: in vitro ADME; conditions: human (H); read-out: In vitro metabolic stability t1/2
[20] = Protein binding, mouse; format: in vitro ADME; conditions: mouse (M)
[21] = Rat bioavailability; conditions: in vivo
[22] = in vivo
Description: One additional group of 20 animals/sex served as the control and received the vehicle, distilled water. The drug or vehicle was administered to all groups via oral gavage, once a day for 91 consecutive days, at a dose volume of 10 mL/kg/dose. Following the dosing period, five animals/sex/group were maintained for a 4-week recovery period. Additionally, one group of three animals/sex and three groups of nine animals/sex/group served as toxicokinetic (TK) animals and received the vehicle or drug in the same manner and at the same dose levels as the main study groups.
Observations for morbidity, mortality, injury, and the availability of food and water were conducted at least twice daily for all animals. Clinical observations were conducted on main study animals weekly. Body weights were measured and recorded for all animals prior to initiation of dosing (week −1) and weekly during the study. Food consumption was measured and recorded for main study animals weekly. Ophthalmoscopic examinations were conducted on main study animals pretest and prior to the terminal and recovery necropsies. Blood samples for designated clinical pathology evaluations were collected from main study animals at the end of week 4 and at the terminal and recovery necropsies. Urine samples for urinalysis evaluations were collected from main study animals prior to the terminal and recovery necropsies. Blood samples for determination of the plasma concentrations of the drug were collected from designated TK animals at designated time points on day 1, week 4, and week 13. After the final blood collection, the TK animals were euthanized and the carcasses were discarded. At the end of the terminal and recovery periods, necropsy examinations were performed, organ weights were recorded, and selected tissues were microscopically examined.

[23] = target: CYP 2C9 (Homo sapiens, UniProt P11712); test: CYP inhibition; format: in vitro ADME
[24] = Mouse bioavailability; format: in vivo; conditions: CEP-37440 as amorphous HCl salt
[25] = target: CYP 2D6 (Homo sapiens, UniProt P10635); test: CYP inhibition; format: in vitro ADME
[26] = target: Adrenergic α1B (R) (Rattus norvegicus, UniProt P15823); test: Receptor selectivity (Cerep); format: binding
Adrenergic α1B (R), sequence (P15823 whole entry): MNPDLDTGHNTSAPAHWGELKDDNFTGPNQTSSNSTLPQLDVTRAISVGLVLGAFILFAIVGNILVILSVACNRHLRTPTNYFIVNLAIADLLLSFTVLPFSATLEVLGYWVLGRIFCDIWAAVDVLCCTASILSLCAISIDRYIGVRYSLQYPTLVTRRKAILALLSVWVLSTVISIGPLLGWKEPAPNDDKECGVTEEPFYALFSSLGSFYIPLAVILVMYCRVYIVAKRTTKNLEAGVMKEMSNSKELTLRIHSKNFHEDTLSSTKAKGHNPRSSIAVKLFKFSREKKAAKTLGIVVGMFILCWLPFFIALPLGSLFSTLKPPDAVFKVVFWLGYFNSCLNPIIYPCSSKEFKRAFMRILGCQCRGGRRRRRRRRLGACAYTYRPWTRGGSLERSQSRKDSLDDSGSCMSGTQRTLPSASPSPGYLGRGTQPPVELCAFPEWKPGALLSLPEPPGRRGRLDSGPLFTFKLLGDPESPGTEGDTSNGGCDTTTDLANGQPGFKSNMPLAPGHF

[27] = target: CYP 1A2 (Homo sapiens, UniProt P05177); test: CYP inhibition; format: in vitro ADME
CYP 1A2, sequence (P05177 whole entry): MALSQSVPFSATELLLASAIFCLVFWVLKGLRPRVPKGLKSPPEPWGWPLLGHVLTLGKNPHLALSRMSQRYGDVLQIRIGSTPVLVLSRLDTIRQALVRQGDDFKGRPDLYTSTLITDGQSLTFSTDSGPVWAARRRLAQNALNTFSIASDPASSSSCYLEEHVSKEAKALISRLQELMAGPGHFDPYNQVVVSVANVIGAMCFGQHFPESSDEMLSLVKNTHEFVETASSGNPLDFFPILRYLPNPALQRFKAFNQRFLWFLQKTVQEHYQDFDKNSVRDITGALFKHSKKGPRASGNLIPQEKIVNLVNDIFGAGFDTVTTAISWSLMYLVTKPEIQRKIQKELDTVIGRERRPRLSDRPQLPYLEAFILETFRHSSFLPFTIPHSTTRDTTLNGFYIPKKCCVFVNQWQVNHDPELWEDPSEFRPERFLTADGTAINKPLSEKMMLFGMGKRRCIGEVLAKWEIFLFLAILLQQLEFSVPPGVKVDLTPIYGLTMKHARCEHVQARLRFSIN

[28] = In vitro metabolic stability, monkey; format: in vitro ADME; conditions: monkey (Mo); read-out: In vitro metabolic stability t1/2
[29] = target: hERG (Homo sapiens, UniProt Q12809); test: hERG patch clamp; format: cell-based
hERG, sequence (Q12809 whole entry): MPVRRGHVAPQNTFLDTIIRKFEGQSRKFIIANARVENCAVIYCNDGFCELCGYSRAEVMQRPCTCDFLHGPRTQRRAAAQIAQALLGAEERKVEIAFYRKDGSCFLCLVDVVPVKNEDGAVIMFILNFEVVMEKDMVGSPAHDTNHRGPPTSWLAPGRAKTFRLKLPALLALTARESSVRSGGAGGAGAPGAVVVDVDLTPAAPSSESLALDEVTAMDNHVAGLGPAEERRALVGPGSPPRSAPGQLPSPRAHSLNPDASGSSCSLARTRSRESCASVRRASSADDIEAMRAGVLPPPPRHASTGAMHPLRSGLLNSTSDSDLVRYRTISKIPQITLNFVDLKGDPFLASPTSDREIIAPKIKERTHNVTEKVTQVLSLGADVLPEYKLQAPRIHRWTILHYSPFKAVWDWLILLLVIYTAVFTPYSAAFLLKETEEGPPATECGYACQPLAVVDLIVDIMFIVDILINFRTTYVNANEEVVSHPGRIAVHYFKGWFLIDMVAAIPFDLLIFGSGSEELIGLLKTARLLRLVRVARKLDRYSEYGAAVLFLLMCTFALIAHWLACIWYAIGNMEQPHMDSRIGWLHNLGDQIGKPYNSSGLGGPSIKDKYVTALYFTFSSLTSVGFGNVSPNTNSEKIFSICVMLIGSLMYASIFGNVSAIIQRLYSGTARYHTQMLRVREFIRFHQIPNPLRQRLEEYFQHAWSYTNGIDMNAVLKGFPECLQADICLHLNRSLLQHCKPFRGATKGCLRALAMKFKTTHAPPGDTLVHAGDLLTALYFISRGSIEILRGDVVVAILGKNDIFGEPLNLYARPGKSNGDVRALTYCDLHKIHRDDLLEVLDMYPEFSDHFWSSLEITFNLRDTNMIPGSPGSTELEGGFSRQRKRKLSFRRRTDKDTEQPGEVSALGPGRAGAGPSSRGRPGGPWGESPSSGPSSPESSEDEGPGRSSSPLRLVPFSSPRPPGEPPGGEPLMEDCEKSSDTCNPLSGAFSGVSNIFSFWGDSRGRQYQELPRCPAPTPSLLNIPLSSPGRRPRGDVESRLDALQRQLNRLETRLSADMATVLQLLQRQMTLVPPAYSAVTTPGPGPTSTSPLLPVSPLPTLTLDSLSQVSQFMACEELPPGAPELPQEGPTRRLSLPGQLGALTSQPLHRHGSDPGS

[30] = tested on: NCI-H3122 NSCLC tumor xenografts; test: Anti-tumor activity, EML4-ALK positive NCI-H3122 NSCLC xenograft; conditions: for anti-tumor efficacy: 12 days
Description: (§1) Anti-Tumor Activity in EML4-ALK Positive (NCI-H2228 and NCI-H3122) NSCLC Tumor Xenografts in Mice with Oral Dosing
(§2) Generation of EML4-ALK-positive and EML4-ALK-negative NSCLC Subcutaneous Tumor Xenografts in Scid Mice Female Scid/Beige mice (6-8 weeks, Taconic, Hudson. N.Y.) were maintained 5/cage in microisolator units on a standard laboratory diet (Teklad Labchow, Harlan Teklad, Madison, Wis.). Animals were housed under humidity- and temperature controlled conditions and the light/dark cycle was set at 12-hour intervals. Mice were quarantined at least 1 week prior to experimental manipulation. […] The mice were monitored until the tumor xenograft volumes reached 200-500 mm3.
(§3) The length (L) and width (W) of each tumor were measured with vernier calipers and the mouse body weight was determined every two to three days. […] Percent tumor growth inhibition (% TGI) was calculated as follows: (tumor volume of the control group at end of treatment—tumor volume of the treated group at the end of treatment)/tumor volume of the control group at the end of treatment. […] Complete tumor regression (CR) was defined as the tumor volume of the treated group at the end of treatment being less than 5% of the tumor volume of the treated group as the start of treatment. Statistical analyses of tumor volumes and mouse body weights were carried out with the Mann-Whitney Rank Sum Test. Plasma and tumor samples were obtained at 2 hours post final dose at each dose level, and the compound levels in plasma and tumor lysates were measured by LC-MS/MS

[31] = tested on: NCI-H2228 NSCLC tumor xenografts; test: Anti-tumor activity, EML4-ALK positive NCI-H2228 NSCLC xenograft; conditions: for anti-tumor efficacy: 12 days
Description: as §1, §2, §3

COc1c(Nc2ncc(Cl)c(N[C@H]3[C@@H](C(N)=O)[C@@H]4C=C[C@H]3C4)n2)ccc2c1CC[C@@H](N1CCOCC1)CC2 [CEP-28122, (1 S,2S,3R,4R)-3-[5-chloro-2-((S)-1-methoxy-7-morpholin-4-yl-6,7,8,9-tetrahydro-5H-benzocyclohepten-2-ylamino)-pyrimidin-4-ylamino]-bicyclo[2.2.1]hept-5-ene-2-carboxylic acid amide]
Protein binding [1]: 96 % bound | Protein binding [2]: 99.2 % bound | IC50 [3]: 944 nM | Ki [4]: 1100 nM | IC50 ([5]; 75% human plasma, read-out: ALK cellular IC50 in 75% human plasma): 300 nM | IC50 ([5]; 75% murine plasma, read-out: ALK cellular IC50 in 75% murine plasma): 300 nM | IC50 ([5]; read-out: ALK cellular IC50): 30 nM | half-life [6]: 6.7 min | solubility thermodynamic ([7]; pH 2, simulated gastric fluid, read-out: Equilibrium solubility at pH 2): > 3000 µg/mL | solubility thermodynamic ([7]; pH 7.4, aqueous buffer, read-out: Equilibrium solubility at pH 7.4): 13 µg/mL (≈ 24.1 µM) | half-life [8]: 13.2 min | CYP3A4 induction in vitro ([9]; @ 0.3 μM): 0.95 fold | CYP3A4 induction in vitro ([9]; @ 3.0 μM): 1.3 fold | bioavailability ([10]; 10 mg/kg): 16% | bioavailability ([10]; 30 mg/kg): 37% | IC50 [11]: 29.5 nM | animals with seizures ([12]; 80 mg/kg, Days 9 and/or 10): 2 animals | lung gross and histologic findings, early death animals ([12]; 20, 40, 80/60 mg/kg): pulmonary edema was identified in all dose groups | morbidity and mortality ([12]; 20, 40, 80/60 mg/kg daily, 91 days): morbidity and mortality in two animals dosed with 80/60 mg/kg and likely two additional animals | hematology changes ([12]; 80/60 mg/kg, from Day 28, returned to baseline by end of recovery): decrease in lymphocytes | liver enzymes in surviving animals ([12]; 80/60 mg/kg, returned to baseline by end of recovery): increased alanine aminotransferase (ALT) and aspartate aminotransferase (AST) | morbidity or mortality ([13]; 3, 10, 20, 40 mg/kg/day oral, 4 weeks): did not result in any morbidity or mortality | dose levels with vacuolated cells in the lungs still present after 4-week recovery ([13]; both, cynomolgus monkey, in vivo): ≥ 20 mg/kg/day | dose levels with histological effects in the lung (vacuolated cells, increased lung weight) ([13]; both, cynomolgus monkey, in vivo, po, 4 weeks): ≥ 10 mg/kg/day | IC50 [14]: 6800 nM | half-life [15]: 19.9 min | Papp [16]: 12.6 ×10⁻⁶ cm/s | IC50 [17]: 996 nM | IC50 [18]: 3 nM | half-life [19]: 10.3 min | Protein binding [20]: 95 % bound | Rat bioavailability [21]: 25% | drug-related deaths ([22]; 30, 75, 150 mg/kg/day oral, 91 days): no drug-related deaths | dosages with adverse histopathological effects in the kidney persisting through 4-week recovery ([22]; both, Sprague-Dawley, rat, in vivo, po, 91 days): ≥ 75 mg/kg/day | NOAEL at 91 days ([22]; both, rat, in vivo, po): 30 mg/kg/day | IC50 [23]: 1300 nM | Mouse bioavailability ([24]; CD-1 mouse): 51% | Mouse bioavailability ([24]; Scid mouse): 71% | IC50 [25]: 17300 nM | Ki [26]: 2200 nM | IC50 [27]: > 30000 nM | half-life [28]: < 5 min | IC50 [29]: > 10000 nM

CNC(=O)c1ccccc1Nc1nc(Nc2ccc3c(c2OC)CCCC(N2CCN(CCO)CC2)C3)ncc1Cl.Cl (centres unmarked) [CEP-37440 (HCl salt), 2-(5-Chloro-2-{6-[4-(2-hydroxy-ethyl)-piperazin-1-yl]-1-methoxy-6,7,8,9-tetrahydro-5H-benzocyclohepten-2-ylamino}-pyrimidin-4-ylamino)-N-methyl-benzamide hydrochloride]
anti-tumor efficacy ([30]; 30 mg/kg bid po): tumor stasis and partial regressions | anti-tumor efficacy ([30]; 55 mg/kg qd po): tumor stasis and partial regressions | tolerability, body weight ([30]; 12 days treatment): well tolerated with no overt toxicity or compound-related weight loss (FIGS. 14 and 15), except at 30 mg/kg, bid dose | anti-tumor efficacy ([31]; 30 mg/kg bid po): tumor regressions | anti-tumor efficacy ([31]; 30 mg/kg, qd, po): tumor regressions | anti-tumor efficacy ([31]; 55 mg/kg qd po): tumor regressions | tolerability, body weight ([31]; 12 days treatment): well tolerated with no overt toxicity or compound-related weight loss
